Values of other authors as cited in patent US20180080913A1, “SCREENING METHOD FOR MULTI-TARGET DRUGS AND/OR DRUG COMBINATIONS” (Wuhan Bio-links Technology Co., Ltd, priority 2015, published 2018).

System: human gastric barcinoma cell line MGC803
Details: combination of d-limonene and berberine, active ingredients of Zuo Gui Wan

Row | SMILES | promotion of gastric cancer cell apoptosis
1 | COc1ccc2cc3[n+](cc2c1OC)CCc1cc2c(cc1-3)OCO2 [berberine] | synergistically promote gastric cancer cell apoptosis
2 | C=C(C)[C@H]1CC=C(C)CC1 [d-limonene] | synergistically promote gastric cancer cell apoptosis
